Measured values: PMC12090776 (2025)

Columns and labels:
SARS-CoV-2 E = SARS-CoV-2 E (Severe acute respiratory syndrome coronavirus 2, UniProt P0DTC4); format: binding
SINV 6K = SINV 6K (Sindbis virus, UniProt P03316); test: UV-Vis absorption of retained compound after overnight dialysis; format: binding; conditions: 3-4x molar excess compound, 1 h on ice, pH 7.6, 0.015% DDM; EGFP negative control
SINV 6K, sequence (P03316 752-806): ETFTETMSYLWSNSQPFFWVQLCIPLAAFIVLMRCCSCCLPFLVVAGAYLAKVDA

SARS-CoV-2 E, sequence (P0DTC4 whole entry): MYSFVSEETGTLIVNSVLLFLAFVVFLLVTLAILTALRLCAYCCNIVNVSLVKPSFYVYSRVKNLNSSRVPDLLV

Row | Structure (SMILES) | UV-Vis absorption of retained compound after overnight dialysis (SARS-CoV-2 E) | UV-Vis absorption of retained compound after overnight dialysis (SINV 6K)
1 | CCN(c1nc(N)c(C(=O)N=C(N)N)nc1Cl)C(C)C [EIPA] | Both 6K (Fig. 2B) and E (Fig. 2C) proteins bind to the compounds | Both 6K (Fig. 2B) and E (Fig. 2C) proteins bind to the compounds
2 | N=C(N)NC(=O)c1nc(Cl)c(N2CCCCCC2)nc1N [HMA] | Both 6K (Fig. 2B) and E (Fig. 2C) proteins bind to the compounds | Both 6K (Fig. 2B) and E (Fig. 2C) proteins bind to the compounds
